The subject of assay [1] is murine ATDC5 progenitor cells. Nature of the assay: Viability after freeze-thawing cycle, MTT assay. Type of assay: cell-based. Here is the method: FIG. 2. Bar graph showing the viability of different numbers of murine ATDC5 progenitor cells suspended in cryogenic media containing 7.5% DMSO and various concentrations of Pentosan Polysulfate (PPS) after being subjected to freeze-thawing cycle. Cell viability was determined using the mitochondrial dehydrogenase MTT assay.
Murine Progenitor cells (cell lines C3H10T1/2 or ATDC5) purchased from RIKEN Cell Bank (Tsukuba, Japan) or human immunoselected Stro-1+ progenitor cells (Mesoblast Ltd, Melbourne, Australia) were seeded at a various cell densities over the range of 1.68×10^5-1.0×10^6 cells into 2 mL screw-capped centrifuge tubes containing in DMEM+10% FBS. In separate tubes a stock solution containing 2× the required concentrations of PPS dissolved in DMEM+20% FBS and 15% DMSO were prepared. These stock solutions were added to the cell cultures such that the final concentration of PPS was half that of the stock concentration and of FBS was 10% and DMSO was […]. […] All concentrations of PPS used were examined in triplicated. Cells and the cryopreservation solutions containing the PPS were mixed gently for 5 mins and stored in liquid nitrogen. After 3 days, the tubes were removed from liquid nitrogen and thawed in 37° C. water bath and allowed to stand at ambient temperature for about 15 min. The cells were centrifuged down at 200 g for 5 min and the supernatant discarded. The cells were washed with 900 ul of DMEM without phenol red, and then centrifuged down at 200 g for 5 min. The cells were resuspended in 500 ul of 1 mg/ml MTT solution in DMEM and incubated in 37° C. for 3 hours then centrifuged at 6000 g for 5 min. 300 ul of DMSO was added to each tube to dissolved the dye crystals. 90 ul×3 from each tube were transferred to a 96-well plate and the absorbance at 540 nm determined.
Cell viability was determined using the MTT assay.
For orientation: Tetrazolium assays rely on reduction of a dye to a coloured formazan, in cell work by metabolically active cells.

For assay [2], the system named is murine ATDC5 progenitor cells. Nature of the assay: Proteoglycan biosynthesis (35S-GAG) in monolayer cultures, maintenance or differentiation media. It counts as cell-based. The text has this: FIG. 21. A bar graph of the concentration dependent effects of rhNC4 (batch PBA-1202P) expressed by K. lactis, in the absence (maintenance media, MM) and presence of insulin (10 micrograms/mL) (differentiation media, DM), on the biosynthesis of Proteoglycans (PGs) as determined by the incorporation of radioactively labelled sulfate into the sulfated glycosaminoglycans (^35S-GAG) of PGs after 3 day culture with Murine ATDC5 progenitor cells. The data was expressed as % change relative to control cultures that contained no rhNC4. P<0.05 was statistically significant relative to control cultures.
FIG. 24. A bar graph of the concentration dependent effects of combinations of rhNC4 (batch PBA-1202P) and Pentosan Polysulfate (PPS) on the biosynthesis of 35S-PGs by monolayer cultures of Murine ATDC5 progenitor cells. Data is expressed relative to control (maintenance media, MM) which was taken as 100%.
FIG. 31. A bar graph of the concentration dependent effects of rhNC4 (batch PBA-1202P) expressed by K. lactis, in the absence (maintenance media, MM) and presence of insulin (10 micrograms/mL) (differentiation media, DM), on the biosynthesis of Proteoglycans (PGs) as determined by the incorporation of radioactively labelled sulfate into the sulfated glycosaminoglycans (^35S-GAG) of PGs after 3 day culture with Murine ATDC5 progenitor cells. The data was expressed as % change relative to control cultures that contained no rhNC4. P<0.05 was statistically significant relative to control cultures.
FIG. 32. A bar graph of the concentration dependent effects of Pentosan Polysulfate (PPS), in the presence of insulin (10 micrograms/mL), on the biosynthesis of Proteoglycans PGs) as determined by the incorporation of radioactively labelled sulfate into the sulfated glycosaminoglycans (^35S-GAG) of PGs after 3 day culture with Murine ATDC5 progenitor cells. The data was expressed as ^35S-GAG radioactivity as counts per minute (CPM) and decays per minute (DPM) relative to control cultures that contained no PPS. P<0.05 was statistically significant relative to control cultures.
Murine Progenitor cells (cell lines C3H10T1/2 or ATDC5) purchased from RIKEN Cell Bank (Tsukuba, Japan) or human immunoselected Stro-1+ Progenitor cells (Mesoblast Ltd, Melbourne, Australia) were seeded into 50 mL plastic culture flasks containing 1:1 high glucose DMEM/Ham's F-12 medium (Invitrogen) supplemented with 10% FBS (Sigma) and incubated at 37° C., in 5% CO2. […] The experiments were generally terminated after 48 hours incubation when proteoglycan biosynthesis was determined by measuring the incorporation of ^35SO4 into the glycosaminoglycans (^35S-GAGs) as described below.
The data was expressed as % change relative to control cultures that contained no rhNC4. […]

Regarding pentosan polysulfate [PPS], the “cell viability after freeze-thawing (MTT)” value in assay [1] (100 μg/ml PPS, 0.25, 0.5 and 1.0 million cells) is listed as “viability was enhanced”; in assay [1] (500 μg/ml PPS, 0.25 million and 0.5 million cells) it was “enhancement is seen”; in assay [1] (500 μg/ml PPS, 1 million cells), “did not appear to enhance viability but was not detrimental to viability”; in assay [1] (7.5% DMSO, all PPS concentrations, FIG. 2) it was “enhanced by the presence of PPS at all concentrations”. Besides, the PG synthesis result in assay [2] (PPS in the presence of insulin (10 micrograms/mL), 3 day culture, FIG. 32) was “concentration dependent stimulation of PG synthesis”. Besides, in assay [2] (PPS, monolayer, FIG. 24), the “biosynthesis of 35S-PGs” value was “effect of PPS increases with concentration”.

For the origin of these results see US9888679B2, “Protection of progenitor cells and regulation of their differentiation” (Proteobioactives Pty Ltd, priority 2007, dated 2018).
